Assay results reported in PMC10042540, “Targeting oncogenic KRasG13C with nucleotide-based covalent inhibitors” (eLife, 2023).

Experiments:
pErkT202/Y204 = assay: Electroporation into HeLa cells, western blot quantification; type: cell-based, human; settings: for pErk mean fold change: mean of cell lysates
Experimental: (§1) HeLa cells were obtained from the American Type Culture Collection (ATCC) and were cultured in DMEM medium (Gibco) supplemented with 10% fetal bovine serum (FBS) (PAN-Biotech) and 1% penicillin/streptomycin (Gibco). Cells were cultured in a humidified incubator at 37 °C in the presence of 5% CO2. The identity of the cells was validated by STR profiling and the cells were tested negative for mycoplasma contamination.
(§2) Electroporation of full-length KRas constructs (KRasWT, KRasG13C, KRasG13C-edaGDP, KRasG13C:acetyledaGDP and KRasG13C-edaGppCp) was performed based on the protocol described by [Alex et al., 2019] using the Neon Transfection System Kit (Thermo Fisher). For electroporation, 3 million cells per experiment were harvested by trypsinization, washed with PBS, and resuspended in 85 µL of the electroporation buffer R (Thermo Fisher). Increasing amounts of recombinant protein samples for each construct (0, 50, 100, 200 and 300 µg) were diluted 1:1 in buffer R followed by the addition of 30 µL of this protein master mix to the cell suspension. This cellular slurry was loaded into a […] Neon Pipette Tip (Thermo Fisher) and electroporated with 2x35 ms pulses at 1000 V. After electroporation, the cells were washed twice with PBS (15 mL) to remove non-internalized extracellular protein and the cell pellet was resuspended in 2 mL complete growth media. Cells were transferred into six-well tissue culture plates (Sarstedt) and incubated for 24 hr at 37 °C and 5% CO2 in a humidified incubator for recovery before being processed for western blotting analysis.
(§3) After recovery of the electroporation, cells were washed twice with ice-cold PBS and lysed in 100 µL of phosphatase and protease inhibitor containing RIPA buffer (Cell Signaling Technology). Cells were incubated on ice for 30 min and then harvested by scraping followed by centrifugation at 14,000 rpm for 10 min at 4 °C. Protein concentrations were determined using the Pierce BCA protein assay (Thermo) following the manufacturer’s recommended procedure. Equal amounts of protein (10 µg) were analyzed by SDS-PAGE and transferred to Immobilon-FL PVDF membranes (Merck Millipore) using Pierce 1-step transfer buffer (Thermo) and the Pierce Power Blotter (Thermo). Membranes were washed with ddH2O for 5 min, blocked with OdysseyBlocking Buffer TBS (Li-Cor) for 1 hr at room temperature and then incubated with primary antibodies diluted in OdysseyBlocking Buffer TBS overnight at 4 °C with gentle agitation. KRas (Sigma Aldrich, SAB1404011-100UG), pcRafS338 (CST, 9427), tAkt1 (CST, 2938), pAktS473 (CST, 4060), tErk (CST, 4696), pErkT202/Y204 (CST, 4370), pS6S235/236 (CST, 4858), and β-actin (CST, 4970/Sigma-Aldrich, A5441) antibodies were used to detect the individual proteins. After primary antibody incubation, membranes were washed three times with TBS-T (50 mM Tris, 150 mM NaCl, 0.05% Tween 20, pH 7.4) for 5 min before being incubated with secondary antibodies (anti-mouse IgG (H+L) (DyLight 680 Conjugate) (CST, 5470) / anti-rabbit IgG (H+L) (DyLight 800 4 X PEG Conjugate) (CST, 5151)) diluted in OdysseyBlocking Buffer TBS for 1 hr at room temperature with gentle agitation. After secondary antibody incubation, the membranes were washed three times for 5 min with TBS-T and then scanned using an OdysseyCLx imaging system (Li-Cor). Quantification of protein levels from western blots was performed using Empiria Studio (Li-Cor) (Figure 3B, C, Figure 3—figure supplements 6–9).

pcRafS338 = assay: as above; type: cell-based, human; settings: for pcRaf mean fold change: mean of cell lysates
Experimental: as §1, §2, §3

tAkt1 = assay: as above; type: cell-based, human; settings: for tAkt mean fold change: mean of cell lysates
Experimental: as §1, §2, §3

pS6S235/236 = assay: as above; type: cell-based, human; settings: for pS6 mean fold change: mean of cell lysates
Experimental: as §1, §2, §3

tErk = assay: as above; type: cell-based, human; settings: for tErk mean fold change: mean of cell lysates
Experimental: as §1, §2, §3

pAktS473 = assay: as above; type: cell-based, human; settings: for pAkt mean fold change: mean of cell lysates
Experimental: as §1, §2, §3

[1] = tested on: Ras pathway (pcRaf, pAkt, pErk, pS6); assay: Electroporation into HeLa cells, western blot of downstream signalling; type: cell-based, human; settings: electroporation of 50-300 µg protein
Experimental: as §1, §2
After recovery of the electroporation, cells were washed twice with ice-cold PBS and lysed in 100 µL of phosphatase and protease inhibitor containing RIPA buffer (Cell Signaling Technology). Cells were incubated on ice for 30 min and then harvested by scraping followed by centrifugation at 14,000 rpm for 10 min at 4 °C. Protein concentrations were determined using the Pierce BCA protein assay (Thermo) following the manufacturer’s recommended procedure. Equal amounts of protein (10 µg) were analyzed by SDS-PAGE and transferred to Immobilon-FL PVDF membranes (Merck Millipore) using Pierce 1-step transfer buffer (Thermo) and the Pierce Power Blotter (Thermo). Membranes were washed with ddH2O for 5 min, blocked with OdysseyBlocking Buffer TBS (Li-Cor) for 1 hr at room temperature and then incubated with primary antibodies diluted in OdysseyBlocking Buffer TBS overnight at 4 °C with gentle agitation. […] Quantification of protein levels from western blots was performed using Empiria Studio (Li-Cor) (Figure 3B, C, Figure 3—figure supplements 6–9).

SOS = assay: Guanine nucleotide-exchange factor assay (mantdGDP fluorescence); type: biochemical
Experimental: SOS-catalysed nucleotide exchange was monitored at 25 °C in a FluoroMax-3 spectrofluorometer (excitation at 360 nm, emission at 440 nm) in 20 mM HEPES (pH 7.5), 100 mM NaCl, 2 mM MgCl2, and 1 mM TCEP. 5 µM KRas1-169 was mixed with 10 µM mantdGDP and subsequently with different concentrations of SOS (0.25 µM and 0.5 µM) (Figure 3A; Figure 3—figure supplement 1).

## KRasG13C: recombinant oncogenic KRasG13C mutant protein, GDP-bound
pErkT202/Y204; 50 µg, Cell lysate 1
  pErk fold change: 5.54
pErkT202/Y204; 50 µg, Cell lysate 2
  pErk fold change: 1.80
pErkT202/Y204; 50 µg, Cell lysate 3
  pErk fold change: 3.53
pErkT202/Y204; 50 µg
  pErk mean fold change: 3.62
pErkT202/Y204; 100 µg, Cell lysate 1
  pErk fold change: 6.18
pErkT202/Y204; 100 µg, Cell lysate 2
  pErk fold change: 2.89
pErkT202/Y204; 100 µg, Cell lysate 3
  pErk fold change: 3.58
pErkT202/Y204; 100 µg
  pErk mean fold change: 4.22
pErkT202/Y204; 200 µg, Cell lysate 1
  pErk fold change: 6.87
pErkT202/Y204; 200 µg, Cell lysate 2
  pErk fold change: 3.48
pErkT202/Y204; 200 µg, Cell lysate 3
  pErk fold change: 4.30
pErkT202/Y204; 200 µg
  pErk mean fold change: 4.88
pErkT202/Y204; 300 µg, Cell lysate 1
  pErk fold change: 9.07
pErkT202/Y204; 300 µg, Cell lysate 2
  pErk fold change: 4.08
pErkT202/Y204; 300 µg, Cell lysate 3
  pErk fold change: 5.76
pErkT202/Y204; 300 µg
  pErk mean fold change: 6.30
pcRafS338; 50 µg, Cell lysate 1
  pcRaf fold change: 1.43
pcRafS338; 50 µg, Cell lysate 2
  pcRaf fold change: 2.59
pcRafS338; 50 µg, Cell lysate 3
  pcRaf fold change: 1.91
pcRafS338; 50 µg
  pcRaf mean fold change: 1.98
pcRafS338; 100 µg, Cell lysate 1
  pcRaf fold change: 1.55
pcRafS338; 100 µg, Cell lysate 2
  pcRaf fold change: 4.23
pcRafS338; 100 µg, Cell lysate 3
  pcRaf fold change: 1.55
pcRafS338; 100 µg
  pcRaf mean fold change: 2.44
pcRafS338; 200 µg, Cell lysate 1
  pcRaf fold change: 1.46
pcRafS338; 200 µg, Cell lysate 2
  pcRaf fold change: 6.14
pcRafS338; 200 µg, Cell lysate 3
  pcRaf fold change: 1.74
pcRafS338; 200 µg
  pcRaf mean fold change: 3.11
pcRafS338; 300 µg, Cell lysate 1
  pcRaf fold change: 1.29
pcRafS338; 300 µg, Cell lysate 2
  pcRaf fold change: 6.29
pcRafS338; 300 µg, Cell lysate 3
  pcRaf fold change: 1.50
pcRafS338; 300 µg
  pcRaf mean fold change: 3.03
tAkt1; 50 µg, Cell lysate 1
  tAkt fold change: 1.94
tAkt1; 50 µg, Cell lysate 2
  tAkt fold change: 0.93
tAkt1; 50 µg, Cell lysate 3
  tAkt fold change: 1.69
tAkt1; 50 µg
  tAkt mean fold change: 1.52
tAkt1; 100 µg, Cell lysate 1
  tAkt fold change: 2.66
tAkt1; 100 µg, Cell lysate 2
  tAkt fold change: 0.74
tAkt1; 100 µg, Cell lysate 3
  tAkt fold change: 1.08
tAkt1; 100 µg
  tAkt mean fold change: 1.49
tAkt1; 200 µg, Cell lysate 1
  tAkt fold change: 2.05
tAkt1; 200 µg, Cell lysate 2
  tAkt fold change: 1.29
tAkt1; 200 µg, Cell lysate 3
  tAkt fold change: 1.44
tAkt1; 200 µg
  tAkt mean fold change: 1.59
tAkt1; 300 µg, Cell lysate 1
  tAkt fold change: 1.78
tAkt1; 300 µg, Cell lysate 2
  tAkt fold change: 1.44
tAkt1; 300 µg, Cell lysate 3
  tAkt fold change: 1.65
tAkt1; 300 µg
  tAkt mean fold change: 1.62
pS6S235/236; 50 µg, Cell lysate 1
  pS6 fold change: 1.14
pS6S235/236; 50 µg, Cell lysate 2
  pS6 fold change: 1.57
pS6S235/236; 50 µg, Cell lysate 3
  pS6 fold change: 1.40
pS6S235/236; 50 µg
  pS6 mean fold change: 1.37
pS6S235/236; 100 µg, Cell lysate 1
  pS6 fold change: 0.95
pS6S235/236; 100 µg, Cell lysate 2
  pS6 fold change: 1.80
pS6S235/236; 100 µg, Cell lysate 3
  pS6 fold change: 1.21
pS6S235/236; 100 µg
  pS6 mean fold change: 1.32
pS6S235/236; 200 µg, Cell lysate 1
  pS6 fold change: 1.17
pS6S235/236; 200 µg, Cell lysate 2
  pS6 fold change: 2.22
pS6S235/236; 200 µg, Cell lysate 3
  pS6 fold change: 1.06
pS6S235/236; 200 µg
  pS6 mean fold change: 1.48
pS6S235/236; 300 µg, Cell lysate 1
  pS6 fold change: 1.44
pS6S235/236; 300 µg, Cell lysate 2
  pS6 fold change: 2.42
pS6S235/236; 300 µg, Cell lysate 3
  pS6 fold change: 1.24
pS6S235/236; 300 µg
  pS6 mean fold change: 1.70
tErk; 50 µg, Cell lysate 1
  tErk fold change: 0.88
tErk; 50 µg, Cell lysate 2
  tErk fold change: 1.05
tErk; 50 µg, Cell lysate 3
  tErk fold change: 0.99
tErk; 50 µg
  tErk mean fold change: 0.97
tErk; 100 µg, Cell lysate 1
  tErk fold change: 0.44
tErk; 100 µg, Cell lysate 2
  tErk fold change: 1.04
tErk; 100 µg, Cell lysate 3
  tErk fold change: 1.00
tErk; 100 µg
  tErk mean fold change: 0.83
tErk; 200 µg, Cell lysate 1
  tErk fold change: 0.50
tErk; 200 µg, Cell lysate 2
  tErk fold change: 1.05
tErk; 200 µg, Cell lysate 3
  tErk fold change: 0.89
tErk; 200 µg
  tErk mean fold change: 0.81
tErk; 300 µg, Cell lysate 1
  tErk fold change: 0.97
tErk; 300 µg, Cell lysate 2
  tErk fold change: 1.08
tErk; 300 µg, Cell lysate 3
  tErk fold change: 0.89
tErk; 300 µg
  tErk mean fold change: 0.98
pAktS473; 50 µg, Cell lysate 1
  pAkt fold change: 1.68
pAktS473; 50 µg, Cell lysate 2
  pAkt fold change: 1.22
pAktS473; 50 µg, Cell lysate 3
  pAkt fold change: 2.21
pAktS473; 50 µg
  pAkt mean fold change: 1.70
pAktS473; 100 µg, Cell lysate 1
  pAkt fold change: 3.58
pAktS473; 100 µg, Cell lysate 2
  pAkt fold change: 2.56
pAktS473; 100 µg, Cell lysate 3
  pAkt fold change: 1.82
pAktS473; 100 µg
  pAkt mean fold change: 2.65
pAktS473; 200 µg, Cell lysate 1
  pAkt fold change: 4.98
pAktS473; 200 µg, Cell lysate 2
  pAkt fold change: 2.01
pAktS473; 200 µg, Cell lysate 3
  pAkt fold change: 1.89
pAktS473; 200 µg
  pAkt mean fold change: 2.96
pAktS473; 300 µg, Cell lysate 1
  pAkt fold change: 4.64
pAktS473; 300 µg, Cell lysate 2
  pAkt fold change: 3.64
pAktS473; 300 µg, Cell lysate 3
  pAkt fold change: 1.72
pAktS473; 300 µg
  pAkt mean fold change: 3.33
[1]
  downstream signalling (pcRaf, pAkt, pErk, pS6): concentration-dependent activation of the downstream signalling
SOS; 5 µM KRas1-169, 10 µM mantdGDP, 0.25 or 0.5 µM SOS
  SOS-catalysed nucleotide exchange: efficiently catalysed nucleotide exchange
SOS; absence of SOS
  intrinsic nucleotide exchange rate: drastically increased
